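Exposure lasted 48 hours, with cells grown in 96-well plates and compounds tested at five concentrations. At the GI50, growth is halved.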 Calls of active or inactive are those of the source. No stated cut-off is given here; in the data, active = GI50 up to about 1.1 µM and inactive = higher.
Key:
Assay in all cases: DTP human tumour cell line panel, 48 h
BT-549 = system: BT-549
DMS-114 = system: DMS-114
XF498 = system: XF498
DMS-273 = system: DMS-273
HOP-18 = system: HOP-18
M19-MEL = system: M19-MEL
DLD-1 = system: DLD-1
LXFL 529 = system: LXFL 529
RXF 631 = system: RXF 631

SMILES	GI50 (BT-549)	GI50 (DMS-114)	GI50 (DMS-273)	GI50 (M19-MEL)	further results
C=C1C(=O)OC2/C=C(\C)CC/C=C(\C)CC(OC(=O)/C(=C/CO)CO)[C@@H]12 (stereo not given in full)	12.1 µM (inactive)	–	–	–	–
NC(=O)CN1C=CCC(C(N)=O)=C1 [CARICOTAMIDE]	> 100 µM (inactive)	–	–	–	–
CCS[C@H]1NC(=O)C1[C@H](C)O[Si](C)(C)C(C)(C)C (stereo not given in full)	–	84.3 µM (inactive)	97.7 µM (inactive)	> 100 µM (inactive)	GI50 (XF498): > 100 µM (inactive); GI50 (HOP-18): > 100 µM (inactive); GI50 (DLD-1): > 100 µM (inactive)
NC1CCCCC1.O=P(O)(O)C1(P(=O)(O)O)CC1	–	> 100 µM (inactive)	> 100 µM (inactive)	> 100 µM (inactive)	GI50 (XF498): > 100 µM (inactive); GI50 (LXFL 529): > 100 µM (inactive)
CC(C)C(/C=C/c1ccc(Cl)cc1)=N\NC(=S)NN	23.1 µM (inactive)	–	–	–	–
COc1ccc(/C=C/C(=O)C(C)C)cc1	–	15.2 µM (inactive)	38.5 µM (inactive)	59.6 µM (inactive)	GI50 (XF498): > 100 µM (inactive); GI50 (LXFL 529): 21.7 µM (inactive); GI50 (HOP-18): 41.4 µM (inactive); GI50 (DLD-1): 63.1 µM (inactive)
O=C(O)CCSCc1ccc(I)cc1	> 100 µM (inactive)	–	–	–	–
O=C(O)C1C2c3ccccc3C(c3ccccc32)C1C(=O)NCC1CC1 (stereo not given)	60 µM (inactive)	–	–	–	–
CCCn1cnc2c(/N=N/O)ncnc21	> 100 µM (inactive)	–	–	–	–
O=c1cc(NNc2ccc3ccccc3c2)[nH]c(=S)[nH]1	39.6 µM (inactive)	–	–	–	–
Nc1ncnc2c1ncn2C1CC(OC2CCCCO2)C(CO)O1 (stereo not given)	–	> 100 µM (inactive)	> 100 µM (inactive)	> 100 µM (inactive)	GI50 (XF498): > 100 µM (inactive); GI50 (LXFL 529): > 100 µM (inactive); GI50 (HOP-18): > 100 µM (inactive); GI50 (DLD-1): > 100 µM (inactive)
CN(C)CCNC(=O)c1cc([N+](=O)[O-])cc2ccc(-c3ccccc3)nc12	–	7.16 µM (inactive)	5.62 µM (inactive)	5.93 µM (inactive)	GI50 (XF498): 7.19 µM (inactive); GI50 (LXFL 529): 18.3 µM (inactive); GI50 (HOP-18): 4.97 µM (inactive); GI50 (DLD-1): 9.2 µM (inactive)
CC(=O)CC(=O)/C=C/c1cccs1	–	59.4 µM (inactive)	–	83.9 µM (inactive)	GI50 (LXFL 529): 85.3 µM (inactive); GI50 (DLD-1): 44 µM (inactive)
CC(=O)NC1=C(C)C(=O)c2c(nc3n2CCC3O)C1=N (stereo not given)	–	3.4 µM (inactive)	17.8 µM (inactive)	2.36 µM (inactive)	GI50 (XF498): 3.81 µM (inactive); GI50 (HOP-18): 17.6 µM (inactive); GI50 (DLD-1): 11.6 µM (inactive)
Cc1ccc(C(=O)C(Cl)C(Cl)c2ccc(C)cc2)cc1 (stereo not given)	3.78 µM (inactive)	–	–	–	–
C1CCC(N=C2N(C3CCCCC3)C(=NC3CCCCC3)N2C2CCCCC2)CC1	–	> 100 µM (inactive)	> 100 µM (inactive)	> 100 µM (inactive)	GI50 (XF498): > 100 µM (inactive); GI50 (LXFL 529): > 100 µM (inactive); GI50 (HOP-18): > 100 µM (inactive); GI50 (DLD-1): > 100 µM (inactive)
Oc1cc(-c2ccc3ccccc3c2)nc2ncccc12	9.93 µM (inactive)	–	–	–	–
COc1ccc(C2C3=C(Nc4ncnn42)c2ccccc2OC3c2ccccc2)cc1 (stereo not given)	5.26 µM (inactive)	–	–	–	–
COc1cc(C2c3cc4c(cc3OC(NNC(N)=O)C2C)OCO4)cc(OC)c1O (stereo not given)	24.5 µM (inactive)	–	–	–	–
COc1ccc(/N=N/C(=O)NC(CC(C)C)C(=O)NC(C)C(=O)O)cc1 (stereo not given)	52.8 µM (inactive)	–	–	–	–
C=C1C(=O)O[C@H]2C/C(C)=C/CC/C(C)=C/CC[C@@](C)(O)[C@@H](I)C[C@@H]12	1.13 µM (inactive)	–	–	–	–
COC(=O)C1=C(C(=O)OC)C(C(=O)c2ccccc2)N2N=C(c3ccc(Cl)cc3)C=CC12 (stereo not given)	2.09 µM (inactive)	–	–	–	–

SMILES	GI50 (BT-549)	GI50 (DMS-114)	GI50 (DMS-273)	GI50 (M19-MEL)	further results
COc1ccc(/C(C)=N/OC(=O)c2c(-c3ccccc3Cl)noc2C)cc1CN1CCOCC1	22.2 µM (inactive)	–	–	–	–
Cc1nc(C(N)=S)sc1C(=O)CC(=O)C(=O)Nc1c(C(C)C)cccc1C(C)C	–	26.7 µM (inactive)	–	34.1 µM (inactive)	GI50 (XF498): 24.5 µM (inactive); GI50 (LXFL 529): 52 µM (inactive); GI50 (HOP-18): 35.9 µM (inactive); GI50 (DLD-1): 55.2 µM (inactive)
C/C=C1/CN2CCc3c([nH]c4ccccc34)[C@@H]2C[C@@H]1Cc1nccc2c1[nH]c1cc(O)ccc12	13.9 µM (inactive)	–	–	–	–
CC1CCC(=O)C(C(=O)CC2CC(=O)N(C)C(=O)C2)C1 (stereo not given)	> 100 µM (inactive)	–	–	–	–
CC1(C)[C@@H]2C[C@H]1C(Cc1ccc(C[C@H]3c4cc(-c5ccccn5)ncc4[C@H]4C[C@@H]3C4(C)C)cc1)c1cc(-c3ccccn3)ncc12 (stereo not given in full)	3.33 µM (inactive)	–	–	–	–
Cc1cc2c(nn1)CCc1c-2no[n+]1[O-]	> 100 µM (inactive)	–	–	–	–
Cc1ccc(S(=O)(=O)ON2C(=O)c3cccc4cc([N+](=O)[O-])cc(c34)C2=O)cc1	27 µM (inactive)	–	–	–	–
CN(C)c1ccc2nc(CC(O)(C(F)(F)F)C(F)(F)F)ccc2c1	> 10 µM (inactive)	–	–	–	–
CN[C@@H](C)[C@H](N)c1ccccc1	–	–	> 100 µM (inactive)	–	GI50 (LXFL 529): > 100 µM (inactive); GI50 (HOP-18): > 100 µM (inactive); GI50 (RXF 631): > 100 µM (inactive); GI50 (DLD-1): > 100 µM (inactive)
Clc1ccc(Cc2nc3cc(CCN4CCN(c5ccccc5)CC4)ccc3[nH]2)cc1	16.4 µM (inactive)	–	–	–	–
CC1(C)C(CBr)=[N+]([O-])C(C)(C)N1O	2.64 µM (inactive)	–	–	–	–
O=C(/C=C/c1cc(F)ccc1F)OCCc1ccccc1	> 100 µM (inactive)	–	–	–	–
COC(=O)[C@@H]1C=CCN1S(=O)(=O)c1ccc(C)cc1	> 100 µM (inactive)	–	–	–	–
O=Cc1ccccc1OCCOc1cc(OCCOc2ccccc2C=O)c(OCCOc2ccccc2C=O)cc1OCCOc1ccccc1C=O	–	47.3 µM (inactive)	52.2 µM (inactive)	> 100 µM (inactive)	GI50 (XF498): > 39.1 µM (inactive); GI50 (LXFL 529): 33.7 µM (inactive); GI50 (HOP-18): > 49.4 µM (inactive); GI50 (DLD-1): 40.7 µM (inactive)
ClC1c2ccccc2C2(c3ccccc3)OOC1(c1ccccc1)O2 (stereo not given)	–	0.267 µM (active)	1.52 µM (inactive)	–	–
Cc1c2cc[n+](COC(=O)c3ccccc3)cc2c(C)c2c1[nH]c1ccccc12	–	0.75 µM (active)	–	0.743 µM (active)	GI50 (XF498): 1.62 µM (inactive); GI50 (LXFL 529): 0.506 µM (active); GI50 (HOP-18): < 0.01 µM (active)
CCCCCCCCCC(=O)OCC1OC(n2cc(F)c(=O)[nH]c2=O)C(N)C(OC(=O)CCCCCCCCC)C1O (stereo not given)	–	15.7 µM (inactive)	20.4 µM (inactive)	17.4 µM (inactive)	GI50 (LXFL 529): 16.6 µM (inactive)
COC(=O)CC1N/C(=N\C#N)N(CCc2c[nH]c3ccccc23)C1=O (stereo not given)	–	> 100 µM (inactive)	> 100 µM (inactive)	> 100 µM (inactive)	GI50 (XF498): > 100 µM (inactive); GI50 (LXFL 529): > 100 µM (inactive); GI50 (DLD-1): > 100 µM (inactive)
O=C(CC1(O)C(=O)Nc2ccccc21)c1ccc(O)cc1O (stereo not given)	–	> 100 µM (inactive)	> 100 µM (inactive)	> 100 µM (inactive)	GI50 (XF498): > 100 µM (inactive); GI50 (LXFL 529): > 100 µM (inactive); GI50 (DLD-1): > 100 µM (inactive)
O=C(CCCNc1nc(-c2ccccc2)cs1)c1cccs1	> 100 µM (inactive)	–	–	–	–
COc1cccc2c1C(=O)c1c(O)c3c(c(O)c1C2=O)C[C@@](O)(C(=O)CO)CC3OC1CC(N)C(OC2CCCCO2)C(C)O1 (stereo not given in full)	0.176 µM (active)	–	0.308 µM (active)	–	GI50 (XF498): 0.54 µM (active); GI50 (LXFL 529): 0.668 µM (active); GI50 (HOP-18): 0.0977 µM (active); GI50 (DLD-1): 1.82 µM (inactive)
CC(C)NC(=O)OCc1c(COC(=O)NC(C)C)c(-c2ccc[n+](COC(=O)C(C)(C)C)c2)n2c1CCC2	> 100 µM (inactive)	–	–	–	–

SMILES	GI50 (BT-549)	GI50 (DMS-114)	GI50 (DMS-273)	GI50 (M19-MEL)	further results
O=C(Cc1ccccc1)N/N=C1\C(=O)Nc2ccccc21	> 100 µM (inactive)	–	–	–	–
CCN(CC)C(=O)Cc1[nH][nH]c(=O)c1C(=O)N(CC)CC	–	> 100 µM (inactive)	> 100 µM (inactive)	> 100 µM (inactive)	GI50 (XF498): > 100 µM (inactive); GI50 (LXFL 529): > 100 µM (inactive); GI50 (HOP-18): > 100 µM (inactive); GI50 (DLD-1): > 100 µM (inactive)
O=c1cc(-c2ccccc2)[nH]c2cc(F)cc(F)c12	–	24.7 µM (inactive)	10.3 µM (inactive)	31.6 µM (inactive)	GI50 (LXFL 529): 53.6 µM (inactive); GI50 (HOP-18): 43 µM (inactive); GI50 (DLD-1): 28.5 µM (inactive)
O=C(/C=C/c1ccc2c(c1)OCO2)CC(=O)C(=O)c1c[nH]c2ccccc12	25.9 µM (inactive)	–	–	–	–
O=C(CN1C(=O)CC(c2ccccc2)(c2ccccc2)C1=O)N1CCN(CCO)CC1	> 100 µM (inactive)	–	–	–	–
CC12CC3OC(=O)C1COC14OC5(C2C1=O)C(O)(CCC1C4CC2OC24CC=CC(=O)C14C)C(=O)OC35C (stereo not given)	2.64 µM (inactive)	–	–	–	–
C[C@H]1CC[C@@]2(NC1)O[C@H]1C[C@H]3[C@@H]4CC[C@H]5C[C@@H](O)CC[C@]5(C)[C@H]4CC[C@]3(C)[C@H]1[C@@H]2C	> 100 µM (inactive)	–	–	–	–
COC(=O)/C(=N/NC(N)=O)C(C(=O)OC)C(=O)C(=O)Nc1ccc(Cl)cc1 (stereo not given)	–	> 71.8 µM (inactive)	> 100 µM (inactive)	> 100 µM (inactive)	GI50 (XF498): > 100 µM (inactive); GI50 (LXFL 529): > 100 µM (inactive); GI50 (HOP-18): > 100 µM (inactive); GI50 (DLD-1): > 100 µM (inactive)
CN(C)CCNC(=O)c1cccc2nc3ccc4cccnc4c3nc12	–	0.533 µM (active)	0.118 µM (active)	0.43 µM (active)	GI50 (HOP-18): 1.78 µM (inactive); GI50 (RXF 631): 0.132 µM (active); GI50 (DLD-1): 0.24 µM (active)
N#CC(C(=O)CCC(=O)Nc1cccc(C(F)(F)F)c1)c1ccccc1 (stereo not given)	–	> 100 µM (inactive)	> 100 µM (inactive)	> 100 µM (inactive)	GI50 (XF498): > 100 µM (inactive); GI50 (LXFL 529): > 100 µM (inactive); GI50 (DLD-1): > 100 µM (inactive)
CC(=O)Oc1ccc2cc(-c3ccc(OC(C)=O)c(OC(C)=O)c3)c(=O)oc2c1	42.3 µM (inactive)	–	–	–	–
COc1cccc2c1CCc1c(-c3ccc(F)cc3)cc(-c3ccc4ccccc4n3)nc1-2	> 100 µM (inactive)	–	–	–	–
Nc1nc(N)nc(-c2cnc3ccccc3c2)n1	> 100 µM (inactive)	–	–	–	–
CCO/C([O-])=C(/C=O)[n+]1c(C)n(C)c2ccccc21	–	> 100 µM (inactive)	> 100 µM (inactive)	> 100 µM (inactive)	GI50 (LXFL 529): > 100 µM (inactive); GI50 (HOP-18): > 100 µM (inactive); GI50 (DLD-1): > 100 µM (inactive)
CCCCN(c1ccccc1)c1ncnc2c1cnn2C	20.3 µM (inactive)	–	–	–	–
Cc1cccc(/C=C2\CCCCCC2=O)c1	> 100 µM (inactive)	–	–	–	–
Fc1cc2nc3n(c2cc1F)C(c1c(F)cccc1F)SC3 (stereo not given)	53.2 µM (inactive)	–	–	–	–
O=C1N/C(=N\N=C\c2ccccc2)C(c2ccccc2)O1 (stereo not given)	33 µM (inactive)	–	–	–	–
O=C(O)c1cccc(S(=O)(=O)NCCO)c1	> 100 µM (inactive)	–	–	–	–
CCCCCCCCCCCCC1NC(=N)NC2(CCCO2)C1C(=O)OC (stereo not given)	4.3 µM (inactive)	–	–	–	–

Reference: ChEMBL document CHEMBL1201862, “PubChem BioAssay data set” (2004)
